This is an account of results in ChEMBL document CHEMBL1127063, “NMR and computational evidence that high-affinity bradykinin receptor antagonists adopt C-terminal beta-turns” (J Med Chem, 1993).

The target in one test is T1, B2 bradykinin receptor (Cavia porcellus, UniProt O70526).
T1 sequence (O70526 whole entry): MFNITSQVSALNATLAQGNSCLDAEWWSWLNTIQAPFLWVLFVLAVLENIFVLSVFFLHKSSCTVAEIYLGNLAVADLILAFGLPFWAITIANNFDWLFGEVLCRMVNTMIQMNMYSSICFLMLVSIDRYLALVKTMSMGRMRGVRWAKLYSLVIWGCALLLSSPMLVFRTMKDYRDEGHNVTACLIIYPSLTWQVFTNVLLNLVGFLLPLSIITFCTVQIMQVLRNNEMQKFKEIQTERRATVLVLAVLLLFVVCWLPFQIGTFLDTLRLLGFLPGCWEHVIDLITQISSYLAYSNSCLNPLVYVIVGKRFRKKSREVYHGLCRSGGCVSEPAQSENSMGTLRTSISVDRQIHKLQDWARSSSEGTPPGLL
Briefly: In vitro binding affinity against bradykinin receptor B2 from guinea pig ileum. It is filed as tissue-based.

The species entered for another test is Cavia porcellus. Briefly: pA2 value against guinea pig ileum. It is filed as functional. As to conditions: read-out: pA2 (converted).

Take `NC(N)=NCCC[C@@H](N)C(=O)N[C@@H](CCCN=C(N)N)C(=O)N1CCC[C@H]1C(=O)N1CCC[C@H]1C(=O)NCC(=O)N[C@@H](Cc1ccccc1)C(=O)N[C@@H](CO)C(=O)N[C@H](Cc1ccccc1)C(=O)N1C2CCCCC2C[C@H]1C(=O)N[C@@H](CCCN=C(N)N)C(=O)O` (stereo partly specified): the Ki (commonly a measure of affinity in units of concentration, obtained from inhibition or displacement) on B2 bradykinin receptor is 0.75 nM. In addition, in the test filed under Cavia porcellus, the Kb was 5.01 nM.

Turning to `CCCO[C@H]1C[C@H](C(=O)N2[C@H](C(=O)N[C@@H](CCCNC(=N)N)C(=O)O)C[C@@H]3CCCC[C@@H]32)N(C(=O)[C@H](CO)NC(=O)[C@H](Cc2cccs2)NC(=O)CNC(=O)[C@@H]2C[C@@H](O)CN2C(=O)[C@@H]2CCCN2C(=O)[C@H](CCCNC(=N)N)NC(=O)[C@H](N)CCCNC(=N)N)C1`, at B2 bradykinin receptor, the inhibition constant Ki is 0.16 nM. In addition, in the test listed under Cavia porcellus, the Kb is 3.16 nM.

`NC(N)=NCCC[C@@H](N)C(=O)N[C@@H](CCCN=C(N)N)C(=O)N1CCC[C@H]1C(=O)N1C[C@H](O)C[C@H]1C(=O)NCC(=O)N[C@@H](Cc1cccs1)C(=O)N[C@@H](CO)C(=O)N1Cc2ccccc2C[C@@H]1C(=O)N1[C@H](C(=O)N[C@@H](CCCN=C(N)N)C(=O)O)C[C@@H]2CCCC[C@@H]21` [ICATIBANT] showed a Ki on B2 bradykinin receptor of 0.11 nM. Also, the Kb in the test filed under Cavia porcellus was 2 nM.
